Results reported in paper PMC12655426 (Pharmaceutics, 2025).
Read-outs that look alike come from different tables or passages of the source.

Key:
Type in all cases: cell-based
OAT3 = target: T1, OAT3 (Homo sapiens, UniProt Q8TCC7); assay: Polyphenol inhibition of OAT3-mediated OTA uptake in HEK293 cells; set-up: host or cells: HEK293, stably transfected; settings: for OTA uptake, fraction of vehicle control: polyphenol 10 μM, 300 nM OTA, 5 min
T1 sequence (Q8TCC7 1-542): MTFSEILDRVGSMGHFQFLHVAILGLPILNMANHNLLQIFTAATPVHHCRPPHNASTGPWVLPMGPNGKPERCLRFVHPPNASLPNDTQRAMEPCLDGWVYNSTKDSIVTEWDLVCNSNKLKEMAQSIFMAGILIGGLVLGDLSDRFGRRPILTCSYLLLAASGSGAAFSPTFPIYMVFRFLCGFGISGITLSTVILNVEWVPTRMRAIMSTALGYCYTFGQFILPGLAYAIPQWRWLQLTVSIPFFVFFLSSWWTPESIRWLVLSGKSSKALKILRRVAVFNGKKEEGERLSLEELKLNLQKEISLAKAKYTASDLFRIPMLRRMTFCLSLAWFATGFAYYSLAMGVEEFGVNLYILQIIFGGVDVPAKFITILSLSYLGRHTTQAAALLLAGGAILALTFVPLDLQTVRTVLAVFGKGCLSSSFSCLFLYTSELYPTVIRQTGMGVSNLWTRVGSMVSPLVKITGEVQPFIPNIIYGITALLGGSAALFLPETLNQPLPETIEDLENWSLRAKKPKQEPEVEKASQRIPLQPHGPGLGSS
Description: (§1) Because OATP1A2 is expressed at exceptionally low levels in the apical membrane of the kidney as well as in the liver and intestine, interaction studies focused on OAT1, OAT3, OAT4, and BCRP as these will have a greater impact on circulating polyphenol levels. […] Uptake assays were performed in three independent experiments, each in technical triplicate.
(§2) A p-value < 0.05 was considered statistically significant. For the estimation of IC50 or EC50 values, transport activity data were fitted with the following four-parameter logistic models: V=Bottom+Top−Bottom/1+I/IC50^h for inhibitors V=Bottom+[I]^h×(Top−Bottom)/[I]^h+EC50^h for activators where V is transport activity expressed as a percentage of vehicle control, [I] is inhibitor (or activator) concentration, Top and Bottom are the asymptotic plateaus, IC50 or EC50 is the concentration producing half-maximal inhibition (or activation), and h is the Hill slope. All data analyses were performed using GraphPad Prism version 10.2.3 (GraphPad). Parameter estimates are reported as best-fit ± standard error from three independent experiments, each run in technical triplicate.

human OAT1 = target: T2, human OAT1 (Homo sapiens, UniProt Q4U2R8); assay: Polyphenol inhibition of OAT1-mediated OTA uptake in HEK293 cells; settings: for OTA uptake, fraction of vehicle control: polyphenol 10 μM, 300 nM OTA, 5 min
T2 construct: host or cells: HEK293, stably transfected
T2 sequence (Q4U2R8 1-563): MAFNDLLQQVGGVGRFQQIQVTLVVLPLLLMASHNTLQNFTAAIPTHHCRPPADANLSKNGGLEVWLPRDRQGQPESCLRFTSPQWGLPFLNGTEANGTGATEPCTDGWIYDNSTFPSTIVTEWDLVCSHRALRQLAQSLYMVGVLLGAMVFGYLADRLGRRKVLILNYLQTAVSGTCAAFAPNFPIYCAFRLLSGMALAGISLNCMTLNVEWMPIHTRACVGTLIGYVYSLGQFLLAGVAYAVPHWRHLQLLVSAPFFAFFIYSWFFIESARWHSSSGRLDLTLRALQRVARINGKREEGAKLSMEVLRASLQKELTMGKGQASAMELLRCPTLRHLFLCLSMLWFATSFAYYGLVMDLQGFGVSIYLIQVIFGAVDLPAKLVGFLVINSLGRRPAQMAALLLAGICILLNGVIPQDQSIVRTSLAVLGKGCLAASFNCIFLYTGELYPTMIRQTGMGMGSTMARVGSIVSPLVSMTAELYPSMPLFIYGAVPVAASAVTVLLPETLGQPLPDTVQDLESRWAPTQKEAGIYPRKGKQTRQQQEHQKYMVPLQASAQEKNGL
Description: as §1, §2

human BCRP = target: T3, human BCRP (Homo sapiens, UniProt Q9UNQ0); assay: Polyphenol modulation of BCRP-mediated OTA efflux in MDCK-II cells; set-up: host or cells: MDCK-II, transient plasmid transfection
T3 sequence (Q9UNQ0 1-655): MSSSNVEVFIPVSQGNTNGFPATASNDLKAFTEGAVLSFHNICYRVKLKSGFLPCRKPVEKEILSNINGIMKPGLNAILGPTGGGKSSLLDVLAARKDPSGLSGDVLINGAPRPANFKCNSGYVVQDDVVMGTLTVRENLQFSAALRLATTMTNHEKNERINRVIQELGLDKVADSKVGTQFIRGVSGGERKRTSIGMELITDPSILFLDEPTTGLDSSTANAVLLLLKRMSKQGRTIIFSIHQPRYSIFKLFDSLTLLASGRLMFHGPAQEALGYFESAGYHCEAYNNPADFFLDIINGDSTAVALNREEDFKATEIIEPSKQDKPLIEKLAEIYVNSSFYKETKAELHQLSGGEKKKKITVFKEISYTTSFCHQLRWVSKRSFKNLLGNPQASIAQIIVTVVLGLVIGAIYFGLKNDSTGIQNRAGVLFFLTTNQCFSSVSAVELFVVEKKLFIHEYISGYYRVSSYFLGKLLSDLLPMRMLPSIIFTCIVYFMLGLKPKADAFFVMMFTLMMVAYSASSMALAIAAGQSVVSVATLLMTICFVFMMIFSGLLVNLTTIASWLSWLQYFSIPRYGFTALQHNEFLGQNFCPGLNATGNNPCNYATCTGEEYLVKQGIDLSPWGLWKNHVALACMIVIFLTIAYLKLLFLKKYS
Description: The concentrations of polyphenols tested were as follows: ECG and miquelianin: 100, 200, 400, 600, 800, 1000 μM; caffeic acid: 50, 100, 500, 1000, 5000, 10,000 μM; luteolin: 0.1, 1, 10, 20, 25, 40, 50, 60, 100, 150 μM; myricetin: 5, 10, 50, 100, 250, 500, 650, 750, 850, 1000 μM. All other assay conditions were as described above. Transport activity was expressed as percent of vehicle control and fitted to a four-parameter logistic model to obtain half-maximal inhibitory concentration (IC50) values (for inhibition) or half-maximal effective concentration (EC50) values (for activation). Three independent experiments, each with technical triplicate, were performed for every compound.
as §2

OAT4 = target: T4, OAT4 (Homo sapiens, UniProt Q9NSA0); assay: Polyphenol inhibition of OAT4-mediated OTA uptake in HEK293 cells; set-up: host or cells: HEK293, stably transfected; settings: polyphenol 10 μM, 300 nM OTA, 5 min
T4 sequence (Q9NSA0 1-550): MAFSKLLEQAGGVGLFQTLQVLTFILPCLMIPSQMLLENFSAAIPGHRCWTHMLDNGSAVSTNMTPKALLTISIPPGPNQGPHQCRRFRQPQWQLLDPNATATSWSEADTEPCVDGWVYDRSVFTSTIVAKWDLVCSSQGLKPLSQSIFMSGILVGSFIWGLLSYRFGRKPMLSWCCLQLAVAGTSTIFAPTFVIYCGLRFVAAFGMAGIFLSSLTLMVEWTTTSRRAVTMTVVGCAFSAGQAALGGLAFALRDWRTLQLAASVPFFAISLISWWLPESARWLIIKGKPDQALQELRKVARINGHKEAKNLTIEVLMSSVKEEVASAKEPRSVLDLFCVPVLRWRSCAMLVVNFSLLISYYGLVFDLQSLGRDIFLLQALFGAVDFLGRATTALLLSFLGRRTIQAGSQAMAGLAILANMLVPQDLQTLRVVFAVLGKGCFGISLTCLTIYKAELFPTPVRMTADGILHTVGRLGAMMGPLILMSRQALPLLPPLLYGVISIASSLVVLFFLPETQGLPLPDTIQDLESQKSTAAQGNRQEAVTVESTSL
Description: as §1, §2

Row | Compound | OTA uptake, fraction of vehicle control (OAT3) | OTA uptake, fraction of vehicle control (human OAT1) | IC50 (human BCRP; read-out: IC50, inhibition of BCRP-mediated OTA transport, 300 nM OTA, efflux ratio as % of vehicle control) | OTA uptake, fraction of vehicle control (OAT4) | EC50 (human BCRP) | maximal stimulation of BCRP-mediated OTA efflux (human BCRP; 300 nM OTA) | decrease of OAT3-mediated OTA uptake (OAT3; 10 µM) | decrease of OAT1-mediated OTA uptake (human OAT1; 10 µM) | IC50 (human BCRP) | effect on BCRP-mediated OTA transport (human BCRP; 300 nM OTA, 100 to 1000 μM)
1 | O=C(O[C@@H]1Cc2c(O)cc(O)cc2O[C@@H]1c1ccc(O)c(O)c1)c1cc(O)c(O)c(O)c1 [ECG, (-)-Epicatechin-3-O-gallate] | did not significantly inhibit | did not significantly inhibit | 495 µM | did not significantly inhibit | – | – | – | – | – | –
2 | O=C(O)/C=C/c1ccc(O)c(O)c1 [caffeic acid] | did not significantly inhibit | did not significantly inhibit | – | did not significantly inhibit | 714 µM | around 2 fold of control | – | – | – | –
3 | O=c1cc(-c2ccc(O)c(O)c2)oc2cc(O)cc(O)c12 [luteolin] | 0.36 fold of vehicle control | 0.28 fold of vehicle control | – | 0.7 fold of vehicle control | – | – | 64% | 72% | 22 µM | –
4 | O=c1c(O)c(-c2cc(O)c(O)c(O)c2)oc2cc(O)cc(O)c12 [myricetin] | 0.74 fold of vehicle control | 0.73 fold of vehicle control | – | 0.82 fold of vehicle control | – | – | – | – | 425 µM | –
5 | quercetin 3-O glucuronide [Miquelianin] | 0.58 fold of vehicle control | no significant effects | – | no significant effects | – | – | – | – | – | no appreciable inhibition or activation
